Source: patent US20240409527A1, “INHIBITORS OF ALPHA-5 BETA-1 INTEGRIN AND USES THEREOF” (The Regents of the University of California, priority 2022, published 2024)

Molecular target: α5β1 integrin (Homo sapiens, UniProt P05556+P08648)
Experiment: IC50 for the selected compounds (assay not described)

α5β1 integrin, sequence (P08648 42-894 limits assumed): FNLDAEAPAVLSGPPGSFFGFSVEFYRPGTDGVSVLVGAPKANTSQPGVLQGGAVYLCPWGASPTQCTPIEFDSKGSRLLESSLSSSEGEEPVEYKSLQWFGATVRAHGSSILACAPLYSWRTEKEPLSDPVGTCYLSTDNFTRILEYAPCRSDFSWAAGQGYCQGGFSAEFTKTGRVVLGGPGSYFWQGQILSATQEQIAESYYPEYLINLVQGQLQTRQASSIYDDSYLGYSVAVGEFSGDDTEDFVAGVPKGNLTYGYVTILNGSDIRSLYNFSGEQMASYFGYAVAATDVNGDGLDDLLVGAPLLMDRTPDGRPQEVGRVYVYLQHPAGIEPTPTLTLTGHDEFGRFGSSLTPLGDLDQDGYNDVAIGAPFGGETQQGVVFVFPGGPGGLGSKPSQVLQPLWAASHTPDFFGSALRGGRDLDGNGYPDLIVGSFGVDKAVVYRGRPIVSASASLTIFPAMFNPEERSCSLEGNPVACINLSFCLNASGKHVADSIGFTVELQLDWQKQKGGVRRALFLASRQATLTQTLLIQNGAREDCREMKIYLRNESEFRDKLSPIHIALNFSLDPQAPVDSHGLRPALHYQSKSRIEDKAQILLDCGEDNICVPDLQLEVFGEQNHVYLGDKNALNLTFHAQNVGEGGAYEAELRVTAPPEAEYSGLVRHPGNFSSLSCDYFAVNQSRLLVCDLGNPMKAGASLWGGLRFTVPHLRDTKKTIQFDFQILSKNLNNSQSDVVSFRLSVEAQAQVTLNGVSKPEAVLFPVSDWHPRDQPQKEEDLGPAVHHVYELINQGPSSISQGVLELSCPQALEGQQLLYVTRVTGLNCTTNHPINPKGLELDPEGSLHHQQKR
α5β1 integrin, sequence (P05556 21-798): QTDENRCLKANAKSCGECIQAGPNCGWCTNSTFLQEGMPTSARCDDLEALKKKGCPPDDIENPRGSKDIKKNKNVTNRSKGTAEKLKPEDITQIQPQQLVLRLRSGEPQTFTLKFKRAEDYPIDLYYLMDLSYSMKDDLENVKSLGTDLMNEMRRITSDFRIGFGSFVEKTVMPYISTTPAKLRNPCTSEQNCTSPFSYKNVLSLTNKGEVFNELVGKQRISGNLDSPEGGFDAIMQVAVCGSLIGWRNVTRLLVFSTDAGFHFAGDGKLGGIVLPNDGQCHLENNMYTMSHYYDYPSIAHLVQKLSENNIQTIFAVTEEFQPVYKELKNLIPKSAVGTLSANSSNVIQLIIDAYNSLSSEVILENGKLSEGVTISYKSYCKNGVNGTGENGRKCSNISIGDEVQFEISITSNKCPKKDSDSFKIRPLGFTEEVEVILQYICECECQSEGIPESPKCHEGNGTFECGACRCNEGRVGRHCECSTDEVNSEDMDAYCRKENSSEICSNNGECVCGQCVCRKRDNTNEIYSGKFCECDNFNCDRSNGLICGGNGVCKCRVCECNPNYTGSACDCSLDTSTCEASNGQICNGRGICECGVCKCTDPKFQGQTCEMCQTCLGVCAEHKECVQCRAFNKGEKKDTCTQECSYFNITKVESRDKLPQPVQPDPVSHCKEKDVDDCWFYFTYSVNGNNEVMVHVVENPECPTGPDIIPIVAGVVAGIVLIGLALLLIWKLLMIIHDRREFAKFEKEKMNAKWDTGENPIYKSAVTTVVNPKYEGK

Row | IC50 | SMILES
1 | < 1 µM | O=C(CNC(=O)c1cncc(NC2=NCCCN2)c1)NC[C@H](NC(=O)c1c(Cl)cc(-c2ccccc2)cc1Cl)C(=O)O [SU15210-00204-01, (S)-2-(3,5-dichlorobiphenyl-4-ylcarboxamido)-3-(2-(5-(1,4,5,6-tetrahydropyrimidin-2-ylamino)nicotinamido)acetamido)propanoic acid]
2 | < 1 µM | O=C(CNC(=O)c1c[nH]c(=O)c(NC2=NCCCN2)c1)NC[C@H](NC(=O)c1c(Cl)cc(-c2ccccc2)cc1Cl)C(=O)O [SU15210-00206-01, (S)-2-(3,5-dichlorobiphenyl-4-ylcarboxamido)-3-(2-(6-oxo-5-(1,4,5,6-tetrahydropyrimidin-2-ylamino)-1,6-dihydropyridine-3-carboxamido)acetamido)propanoic acid]
